Assay results from PMC3029310 (Journal of Insect Science, 2010).

System: T1, AChE
T1 construct: gene ace1; native; newly emerged adult males for these rows
Test: Ellman assay (DTNB, […] nm), […] substrate concentrations […]
Assay type: biochemical, Blattella germanica
Settings: newly emerged adult males; pH 7.5; 30 °C

SMILES: CC(=O)SCC[N+](C)(C)C [Acetylthiocholine iodide]
- Km: 340 ± 49 µM
